Measurements published in patent publication US9951044B2, “Quinazoline derivatives and their use as DNA methyltransferase inhibitors” (PIERRE FABRE MEDICAMENT, priority 2013, dated 2018).
Like-named read-outs stand apart in the source and are kept apart here.

Experiments:
[1] = molecular target: T1, human C-terminal DNMT3A (a.a. 623-908) (Homo sapiens, UniProt Q9Y6K1); experiment: DNMT3A assay (restriction-based fluorescence); type: biochemical; conditions: for inhibition at 10 µM: read-out: DNMT3A (% of inhibition) 10 μM; for inhibition at 20 µM: compound at 20 μM; for inhibition at 32 µM: read-out: DNMT3A (% of inhibition) 32 μM; for EC50: concentration range in triplicates
T1 construct: The human C-terminal DNMT3A (a.a. 623-908); made in house
Source text: DNMT3A enzyme inhibition was adapted from the restriction-based fluorescence assay protocol described in Ceccaldi et al. (ChemBioChem 2011, 12, 1337-45). Briefly, a 5′-labelled biotin oligonucleotide is hybridized to its complementary strand labelled with 6-carboxyfluorescein at the 3′-end into a 384 well microplate (black Optiplates; Perkin Elmer) pre-coated with avidin. The duplex contains a unique CpG site overlapping with a restriction site of a methylation sensitive restriction enzyme. The human C-terminal DNMT3A (a.a. 623-908), produced as described in Gros et al. (Nucleic Acids Research 2013 Aug. 25), was added in each well (200 ng/well) and mixed with the chemical compounds at desired concentrations and freshly prepared AdoMet (20 μM final concentration) to start the reaction in a total volume of 50 μL. After 1 hour incubation at 37° C. each well were washed three times with PBS, Tween-20 0.05%, NaCl (500 mM) and three more times with PBST. Specific fluorescent signals were detected with the methylation-sensitive restriction enzyme HpyCH4IV (NEB) as described and measured on a Perkin Elmer Envision detector. The percentage of inhibition is reported. The formula used to calculate the percentage of inhibition is [(X−Y)/X]×100, where X is the signal determined in the absence of the inhibitor and Y is the signal obtained in the presence of the inhibitor. The concentration at which 50% of efficacy of inhibition is observed (EC50) was determined by analysis of a concentration range of the tested compound in triplicates. The non-linear regression fittings with sigmoidal dose-response (variable slope) were performed with GraphPad Prism 4.03 (GraphPad Software).

[2] = molecular target: T2, His-DNMT1 (182 kDa, human) (Homo sapiens, UniProt P26358); experiment: DNMT1 assay ([methyl-3H] SAM Flashplate); type: biochemical; conditions: for inhibition at 100 µM: read-out: DNMT1 (% of inhibition) 100 μM; for inhibition at 32 µM: compound at 32 μM, read-out: DNMT1 (% of inhibition) 32 μM
T2 construct: His; made in house
Experimental: His-DNMT1 (182 kDa, human) was cloned, expressed and purified as described in Halby et al. (ChemBioChem 2012, 13, 157-65). The reaction was performed in a 10 μL total reaction volume in low volume NBS™ 384-well microplates (Corning), containing the tested compound (up to 1% DMSO), 1 μM of a SAM/[methyl-^3H] SAM (3 TBq/mmol, PerkinElmer) mix in a ratio of 3-to-1 (isotopic dilution 1*:3), 0.3 μM of biotinylated hemimethylated DNA duplex (5′-GATmCGCmCGATGmCGmCGAATmCGmCGAT mCGATGmCGAT-3′ and BIOT-5′-[…] ATC-3′), and 90 nM of DNMT1 in methylation buffer (20 mM HEPES pH 7.2, 1 mM EDTA, 50 mM KCl, 25 μg/mL BSA). The reaction was incubated at 37° C. for 2 hours. 8 μL are then transferred into a streptavidin 96-well scintillant coated Flashplate™ (PerkinElmer) containing 190 μL of 20 μM SAH in 50 mM Tris-HCl pH 7.4. The Flashplate™ was agitated at room temperature for 1 hour, washed three times with 200 μL of 0.05% Tween®-20 in 50 mM Tris-HCl pH 7.4, and read in 200 μL of 50 mM Tris-HCl pH 7.4 on TopCount NXT (PerkinElmer).

T2 sequence (P26358 whole entry): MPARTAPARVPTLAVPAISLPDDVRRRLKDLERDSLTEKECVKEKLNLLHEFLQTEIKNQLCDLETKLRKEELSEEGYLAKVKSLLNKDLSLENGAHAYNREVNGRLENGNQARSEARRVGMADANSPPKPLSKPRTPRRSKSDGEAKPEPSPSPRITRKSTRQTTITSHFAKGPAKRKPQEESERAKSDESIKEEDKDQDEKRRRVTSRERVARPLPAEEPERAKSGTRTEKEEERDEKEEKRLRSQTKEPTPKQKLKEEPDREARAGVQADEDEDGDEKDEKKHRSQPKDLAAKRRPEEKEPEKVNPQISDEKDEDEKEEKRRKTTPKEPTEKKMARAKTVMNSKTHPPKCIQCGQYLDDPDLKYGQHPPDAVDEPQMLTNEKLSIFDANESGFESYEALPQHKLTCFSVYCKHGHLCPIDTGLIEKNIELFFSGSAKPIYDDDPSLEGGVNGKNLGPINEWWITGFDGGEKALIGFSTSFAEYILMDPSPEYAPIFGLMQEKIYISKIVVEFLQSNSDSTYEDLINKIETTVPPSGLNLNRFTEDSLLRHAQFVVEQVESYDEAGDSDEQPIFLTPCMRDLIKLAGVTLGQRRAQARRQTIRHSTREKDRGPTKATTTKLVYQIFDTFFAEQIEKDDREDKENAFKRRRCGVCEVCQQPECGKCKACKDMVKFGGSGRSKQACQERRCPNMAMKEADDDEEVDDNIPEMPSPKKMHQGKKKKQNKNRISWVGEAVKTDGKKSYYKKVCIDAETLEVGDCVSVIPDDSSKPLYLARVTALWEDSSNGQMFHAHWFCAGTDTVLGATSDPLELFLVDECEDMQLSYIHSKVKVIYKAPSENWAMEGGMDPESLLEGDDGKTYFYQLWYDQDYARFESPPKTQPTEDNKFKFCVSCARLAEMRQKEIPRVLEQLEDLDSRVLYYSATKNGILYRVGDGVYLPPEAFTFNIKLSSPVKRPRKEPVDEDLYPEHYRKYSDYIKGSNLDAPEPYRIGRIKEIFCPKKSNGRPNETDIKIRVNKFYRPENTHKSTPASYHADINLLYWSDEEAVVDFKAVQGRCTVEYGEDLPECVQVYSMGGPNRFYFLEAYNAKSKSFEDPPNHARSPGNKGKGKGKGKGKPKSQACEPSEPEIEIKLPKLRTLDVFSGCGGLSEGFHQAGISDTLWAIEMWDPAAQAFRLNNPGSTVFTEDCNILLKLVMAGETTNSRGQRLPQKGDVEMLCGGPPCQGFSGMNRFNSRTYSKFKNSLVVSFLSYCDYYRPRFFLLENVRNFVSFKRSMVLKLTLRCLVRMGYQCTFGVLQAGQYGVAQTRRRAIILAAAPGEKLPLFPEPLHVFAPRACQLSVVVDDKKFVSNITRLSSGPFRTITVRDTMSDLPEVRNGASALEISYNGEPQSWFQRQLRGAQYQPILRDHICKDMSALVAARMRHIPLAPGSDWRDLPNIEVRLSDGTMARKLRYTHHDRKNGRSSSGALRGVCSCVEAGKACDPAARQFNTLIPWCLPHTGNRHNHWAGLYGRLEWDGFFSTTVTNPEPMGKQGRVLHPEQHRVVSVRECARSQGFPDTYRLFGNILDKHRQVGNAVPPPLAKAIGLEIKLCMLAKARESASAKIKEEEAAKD
T1 sequence (Q9Y6K1 627-912 limits assumed): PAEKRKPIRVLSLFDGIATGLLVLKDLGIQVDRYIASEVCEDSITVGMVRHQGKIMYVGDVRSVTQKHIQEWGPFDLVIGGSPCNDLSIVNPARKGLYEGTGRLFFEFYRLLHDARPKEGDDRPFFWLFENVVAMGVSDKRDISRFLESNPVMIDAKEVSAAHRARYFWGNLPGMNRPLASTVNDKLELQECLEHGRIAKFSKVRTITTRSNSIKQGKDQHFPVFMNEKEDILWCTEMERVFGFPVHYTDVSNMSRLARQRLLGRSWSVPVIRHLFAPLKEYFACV

inhibition at 10 µM ([1]; compound at 10 μM) [%] | inhibition at 20 µM [1] [%] | inhibition at 32 µM ([1]; compound at 32 μM) [%] | inhibition at 100 µM ([2]; compound at 100 μM) [%] | EC50 [1] [µM] | inhibition at 32 µM [2] [%] | SMILES | inhibition at 10 µM [1] [%] | inhibition at 32 µM [1] [%] | inhibition at 100 µM [2] [%]
28 | 44 | 69 | 94.9 |  |  | CCCNc1ncnc2cc(OCC3CCN(CCNc4ccnc5ccccc45)CC3)ccc12 [Compound H, 4-propylamino-7-((1-(2-(quinolin-4-ylamino)ethyl)piperidin-4-yl)methoxy)quinazoline] |  |  | 
 |  |  |  |  |  | c1ccc(CCCNc2ncnc3cc(OCC4CCN(CCNc5ccc6ncccc6c5)CC4)ccc23)cc1 [AS, 4-((3-phenylpropyl)amino)-7-((1-(2-(quinolin-6-ylamino)ethyl)piperidin-4-yl)methoxy)quinazoline] | 60 | 60 | 
16 | 32 | 68 | 99.3 |  |  | Nc1ncnc2cc(OCC3CCN(CCNc4ccnc5ccccc45)CC3)ccc12 [Compound I, 4-amino-7-((1-(2-(quinolin-4-ylamino)ethyl)piperidin-4-yl)methoxy)quinazoline] |  |  | 
61 |  | 68 | 99.6 | 5.7 | 74 | Cc1cc(NCCNc2ncnc3cc(OCC4CCN(CCNc5ccnc6ccccc56)CC4)ccc23)nc(N)n1 [Compound Q, 6-methyl-N^4-(2-((7-((1-(2-(quinolin-4-ylamino)ethyl)piperidin-4-yl)methoxy)quinazolin-4-yl)amino)ethyl)pyrimidine-2,4-diamine] |  |  | 
65 |  | 99 | 98.4 |  | 45 | O=c1c2ccc(OCC3CCN(CCNc4ccnc5ccccc45)CC3)cc2ncn1CCCc1ccccc1 [Compound R, 3-(3-phenylpropyl)-7-((1-(2-(quinolin-4-ylamino)ethyl)piperidin-4-yl)methoxy)quinazolinone] |  |  | 
 |  | 65 |  |  |  | Nc1ccc(NCCN2CCC(COc3ccc4c(NCCCc5ccccc5)ncnc4c3)CC2)cc1 [Compound AN] |  |  | 
82 |  | 91 | 97 | 2.7 |  | Clc1cccc(CCNc2ncnc3cc(OCC4CCN(CCNc5ccnc6ccccc56)CC4)ccc23)c1 [AA, 4-(2-(3-chlorophenyl)ethylamino)-7-((1-(2-(quinolin-4-ylamino)ethyl)piperidin-4-yl)methoxy)quinazoline] |  |  | 
80 |  | 99 | 98.4 |  | 38 | c1ccc(CCNc2ncnc3cc(OCC4CCN(CCNc5ccnc6ccccc56)CC4)ccc23)cc1 [Compound O, 4-(3-phenethylamino)-7-((1-(2-(quinolin-4-ylamino)ethyl)piperidin-4-yl)methoxy)quinazoline] |  |  | 
 |  | 100 | 97 |  | 42 | Clc1ccccc1CCNc1ncnc2cc(OCC3CCN(CCNc4ccnc5ccccc45)CC3)ccc12 [AB, 4-(2-(2-chlorophenyl)ethylamino)-7-((1-(2-(quinolin-4-ylamino)ethyl)piperidin-4-yl)methoxy)quinazoline] |  |  | 
88 |  | 100 | 97 | 1.9 | 75 | Clc1ccc(CCNc2ncnc3cc(OCC4CCN(CCNc5ccnc6ccccc56)CC4)ccc23)cc1 [AC, 4-(2-(4-chlorophenyl)ethylamino)-7-((1-(2-(quinolin-4-ylamino)ethyl)piperidin-4-yl)methoxy)quinazoline] |  |  | 
 |  |  |  |  |  | Clc1ccc2c(NCCN3CCC(COc4ccc5c(NCCCc6ccccc6)ncnc5c4)CC3)ccnc2c1 [AO, 4-((3-phenylpropyl)amino)-7-((1-(2-(7-chloroquinolin-4-ylamino)ethyl)piperidin-4-yl)methoxy)quinazoline] | 70 | 62 | 79
47 | 65 | 72 | 33.7 |  |  | c1ccc(CCCNc2ncnc3cc(OCC4CCN(CCNc5ccncc5)CC4)ccc23)cc1 [Compound J, 4-(3-phenylpropylamino)-7-((1-(2-(pyridin-4-ylamino)ethyl)piperidin-4-yl)methoxy)quinazoline] |  |  | 
43 |  | 81 | 22 | 13.1 | 26 | c1ccc(CNc2ncnc3cc(OCC4CCN(CCNc5ccnc6ccccc56)CC4)ccc23)cc1 [Compound P, 4-(3-benzylamino)-7-((1-(2-(quinolin-4-ylamino)ethyl)piperidin-4-yl)methoxy)quinazoline] |  |  | 
86 |  | 99 | 99 | 1 | 99 | c1ccc2c(NCCNc3ncnc4cc(OCC5CCN(CCNc6ccnc7ccccc67)CC5)ccc34)ccnc2c1 [AI] |  |  | 
76 |  | 5 | 93 |  | 93 | c1ccc(NCCNc2ncnc3cc(OCC4CCN(CCNc5ccnc6ccccc56)CC4)ccc23)cc1 [AK, 4-(2-(phenylamino)ethylamino)-7-((1-(2-(quinolin-4-ylamino)ethyl)piperidin-4-yl)methoxy)quinazoline] |  |  | 
68 |  | 96 | 97 |  | 59 | Nc1ccc(CCNc2ncnc3cc(OCC4CCN(CCNc5ccnc6ccccc56)CC4)ccc23)cc1 [AH, 4-(2-(4-aminophenyl)ethylamino)-7-((1-(2-(quinolin-4-ylamino)ethyl)piperidin-4-yl)methoxy)quinazoline] |  |  | 
 | 67 |  | 86 |  |  | c1ccc(CCCNc2ncnc3cc(OCCCNCCCCNc4ccnc5ccccc45)ccc23)cc1 [Compound B] |  |  | 
82 |  | 100 | 59 |  | 77 | COc1ccc(CCNc2ncnc3cc(OCC4CCN(CCNc5ccnc6ccccc56)CC4)ccc23)cc1 [AG, 4-(2-(4-methoxyphenyl)ethylamino)-7-((1-(2-(quinolin-4-ylamino)ethyl)piperidin-4-yl)methoxy)quinazoline] |  |  | 
10 | 40 | 44 |  |  |  | COCn1ccc(NCCN2CCC(COc3ccc4c(NCCCc5ccccc5)ncnc4c3)CC2)nc1=O [Compound K, 1-(methoxymethyl)-N^4-(2-(4-(((4-((3-phenylpropyl)amino)quinazolin-7-yl)oxy)methyl)piperidin-1-yl)ethyl)cytosine] |  |  | 
53 |  | 83 |  |  |  | CC(C)c1ccc(CCNc2ncnc3cc(OCC4CCN(CCNc5ccnc6ccccc56)CC4)ccc23)cc1 [AF, 4-(2-(4-isopropylphenyl)ethylamino)-7-((1-(2-(quinolin-4-ylamino)ethyl)piperidin-4-yl)methoxy)quinazoline] |  |  | 
 | 27 | 51 |  |  |  | O=CN(CCCNc1ccnc2ccccc12)CCCOc1ccc2c(NCCCc3ccccc3)ncnc2c1 [Compound E, N-(3-((4-((3-phenylpropyl)amino)quinazolin-7-yl)oxy)propyl)-N-(3-(quinolin-4-ylamino)propyl)formamide] |  |  | 

SMILES | inhibition at 10 µM ([1]; compound at 10 μM) [%] | inhibition at 20 µM [1] [%] | inhibition at 32 µM ([1]; compound at 32 μM) [%] | inhibition at 100 µM ([2]; compound at 100 μM) [%] | EC50 [1] [µM] | inhibition at 32 µM [2] [%] | inhibition at 10 µM [1] [%] | inhibition at 32 µM [1] [%] | inhibition at 100 µM [2] [%]
CN(CCN1CCC(COc2ccc3c(NCCCc4ccccc4)ncnc3c2)CC1)c1ccnc2ccccc12 [AR, 4-((3-phenylpropyl)amino)-7-((1-(2-(methyl(quinolin-4-yl)amino)ethyl)piperidin-4-yl)methoxy)quinazoline] |  |  |  |  | 4.7 |  | 66 | 66 | 
